Patent US12145947B2, “Pyrimidine based modulators and uses thereof” (Quanta Therapeutics, Inc., priority 2022, dated 2024)

Biological target: T1, GST-tagged KRAS-G12D (2-169) (Homo sapiens, UniProt P01116, G12D)
T1 construct: GST-tagged KRAS-G12D (2-169, Reaction Biology, MSC-11-539); purchased Reaction Biology MSC-11-539 (KRAS G12D); MSC-11-502 (SOS1cat)
Test: Nucleotide exchange assay (NEA), SOS-mediated, HTRF, KRAS G12D
Assay type: biochemical
Details: Table 4, IC50 extracted at 30 min
Procedure, shortened: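 GST-KRAS-G12D (2-169, 5 nM final) with Tb-anti-GST donor was preincubated with compound 1 h at RT (pH 7.3 HEPES buffer, MgCl2, DTT), then SOScat (564-1049, 20 nM) and GTP-DY-647P1 (150 nM) were added. HTRF was read at RT; % inhibition vs DMSO/no-SOS blank, 4-parameter IC50 taken at 30 min.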

T1 sequence (P01116 2-169 isoform P01116-2 G12D): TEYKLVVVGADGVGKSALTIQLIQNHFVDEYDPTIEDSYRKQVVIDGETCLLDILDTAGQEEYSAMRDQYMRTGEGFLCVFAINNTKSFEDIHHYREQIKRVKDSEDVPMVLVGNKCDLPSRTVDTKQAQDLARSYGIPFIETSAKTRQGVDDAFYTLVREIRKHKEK

Row | Compound | IC50 | other results
1 | N#Cc1c(N2C[C@H]3COC[C@@H](C2)N3)nc(OCC2(CN3CCOCC3)CC2)nc1N1CC2(CCc3sc(N)c(C#N)c32)C1 [Compound 42, 2-amino-1′-[5-cyano-2-[[1-(morpholinomethyl)cyclopropyl]methoxy]-6-(3-oxa-7,9-diazabicyclo[3.3.1]nonan-7-yl)pyrimidin-4-yl]spiro[5,6-dihydrocyclopenta[b]thiophene-4,3′-azetidine]-3-carbonitrile] | < 10 nM | 
2 | N#Cc1c(N2CC3COCC(C2)N3)nc(OC[C@]23CCCN2C[C@@H](F)C3)nc1N1CC2(CCc3sc(N)c(C#N)c32)C1 [Compound 43, 2-amino-1′-[5-cyano-2-[[(2S,8R)-2-fluoro-1,2,3,5,6,7-hexahydropyrrolizin-8-yl]methoxy]-6-(3-oxa-7,9-diazabicyclo[3.3.1]nonan-7-yl)pyrimidin-4-yl]spiro[5,6-dihydrocyclopenta[b]thiophene-4,3′-azetidine]-3-carbonitrile] | 10 to 100 nM | 
3 | CC1CC2(CN(c3nc(OCC4(CN5CCOCC5)CC4)nc(N4C[C@H]5CC[C@@H](C4)N5)c3C#N)C2)c2c1sc(N)c2C#N (stereo partly drawn) [Compound 45, 2-amino-1-[5-cyano-2-[[1-(morpholinomethyl)cyclopropyl]methoxy]-6-[(1R,5S)-3,8-diazabicyclo[3.2.1]octan-3-yl]pyrimidin-4-yl]-6-methyl-spiro[5,6-dihydrocyclopenta[b]thiophene-4,3′-azetidine]-3-carbonitrile] | < 10 nM | 
4 | Cc1nc(-c2nn3c(c2Cl)CN(c2nc(OC[C@@]45CCCN4C[C@H](F)C5)nc(N4CC5(CCc6sc(N)c(C#N)c65)C4)c2C#N)CCC3)no1 [Compound 46, 2-amino-1′-[6-[3-chloro-2-(5-methyl-1,2,4-oxadiazol-3-yl)-4,6,7,8-tetrahydropyrazolo[1,5-a][1,4]diazepin-5-yl]-5-cyano-2-[[(2R,8S)-2-fluoro-1,2,3,5,6,7-hexahydropyrrolizin-8-yl]methoxy]pyrimidin-4-yl]spiro[5,6-dihydrocyclopenta[b]thiophene-4,3′-azetidine]-3-carbonitrile] | < 10 nM | 
5 | CN(C)C1(COc2nc(N3C[C@H]4CC[C@@H](C3)N4)c(C#N)c(N3CC4(CCc5sc(N)c(C#N)c54)C3)n2)CC1 [Compound 47, 2-amino-1′-[5-cyano-6-[(1R,5S)-3,8-diazabicyclo[3.2.1]octan-3-yl]-2-[[1-(dimethylamino)cyclopropyl]methoxy]pyrimidin-4-yl]spiro[5,6-dihydrocyclopenta[b]thiophene-4,3′-azetidine]-3-carbonitrile] | < 10 nM | 
6 | CN(CCOc1nc(N2C[C@H]3CC[C@@H](C2)N3)c(C#N)c(N2CC3(CCc4sc(N)c(C#N)c43)C2)n1)C1CCC1 [Compound 48, 2-amino-1′-[5-cyano-2-[2-[cyclobutyl(methyl)amino]ethoxy]-6-[(1R,5S)-3,8-diazabicyclo[3.2.1]octan-3-yl]pyrimidin-4-yl]spiro[5,6-dihydrocyclopenta[b]thiophene-4,3′-azetidine]-3-carbonitrile] | 10 to 100 nM | 
7 | N#Cc1c(N2CCCC(=O)CC2)nc(OC[C@@]23CCCN2C[C@H](F)C3)nc1N1CC2(CCc3sc(N)c(C#N)c32)C1 [Compound 49, 2-amino-1′-[5-cyano-2-[[(2R,8S)-2-fluoro-1,2,3,5,6,7-hexahydropyrrolizin-8-yl]methoxy]-6-(4-oxoazepan-1-yl)pyrimidin-4-yl]spiro[5,6-dihydrocyclopenta[b]thiophene-4,3′-azetidine]-3-carbonitrile] | 10 to 100 nM | 
8 | CN(C)CC1(COc2nc(N3C[C@H]4CC[C@@H](C3)N4)c(C#N)c(N3CC4(CCc5sc(N)c(C#N)c54)C3)n2)COC1 [Compound 52, 2-amino-1′-[5-cyano-6-[(1R,5S)-3,8-diazabicyclo[3.2.1]octan-3-yl]-2-[[3-[(dimethylamino)methyl]oxetan-3-yl]methoxy]pyrimidin-4-yl]spiro[5,6-dihydrocyclopenta[b]thiophene-4,3′-azetidine]-3-carbonitrile] | < 10 nM | 
9 | N#Cc1c(N2CCCn3nc(C(=O)C4CC4)c(Cl)c3C2)nc(OC[C@@]23CCCN2C[C@H](F)C3)nc1N1CC2(CCc3sc(N)c(C#N)c32)C1 [Compound 62, 2-amino-1′-[6-[3-chloro-2-(cyclopropanecarbonyl)-4,6,7,8-tetrahydropyrazolo[1,5-a][1,4]diazepin-5-yl]-5-cyano-2-[[(2R,8S)-2-fluoro-1,2,3,5,6,7-hexahydropyrrolizin-8-yl]methoxy]pyrimidin-4-yl]spiro[5,6-dihydrocyclopenta[b]thiophene-4,3′-azetidine]-3-carbonitrile] | < 10 nM | 
10 | N#Cc1c(N2C[C@H]3CC[C@@H](C2)N3)nc(OCC2(CN3CCOCC3)CC2)nc1N1CC2(CCCCc3sc(N)c(C#N)c32)C1 [Compound 70, 2-amino-1′-[5-cyano-2-[[1-(morpholinomethyl)cyclopropyl]methoxy]-6-[(1R,5S)-3,8-diazabicyclo[3.2.1]octan-3-yl]pyrimidin-4-yl]spiro[5,6,7,8-tetrahydrocyclohepta[b]thiophene-4,3′-azetidine]-3-carbonitrile] | < 10 nM | 
11 | N#Cc1c(N2C[C@H]3CC[C@@H](C2)N3)nc(OCC2(CN3CC[S+]([O-])CC3)CC2)nc1N1CC2(CCc3sc(N)c(C#N)c32)C1 [Compound 71, 2-amino-1′-[5-cyano-6-[(1R,5S)-3,8-diazabicyclo[3.2.1]octan-3-yl]-2-[[1-[(1-oxo-1,4-thiazinan-4-yl)methyl]cyclopropyl]methoxy]pyrimidin-4-yl]spiro[5,6-dihydrocyclopenta[b]thiophene-4,3′-azetidine]-3-carbonitrile] | < 10 nM | 
12 | N#Cc1c(N2C[C@H]3CC[C@@H](C2)N3)nc(OCC2(CN3CCOCC3)CC2)nc1N1CC2(CSc3sc(N)c(C#N)c32)C1 [Compound 73, 5-amino-1′-[5-cyano-2-[[1-(morpholinomethyl)cyclopropyl]methoxy]-6-[(1R,5S)-3,8-diazabicyclo[3.2.1]octan-3-yl]pyrimidin-4-yl]spiro[2H-thieno[2,3-b]thiophene-3,3′-azetidine]-4-carbonitrile] | < 10 nM | 
13 | CN(C)CC1(COc2nc(N3CC4CCC(C3)N4)c(C#N)c(N3CC4(CCc5sc(N)c(C#N)c54)C3)n2)CC1(F)F (stereo not shown) [Compound 74A, 2-amino-1′-[5-cyano-6-(3,8-diazabicyclo[3.2.1]octan-3-yl)-2-[[(1*)-1-[(dimethylamino)methyl]-2,2-difluoro-cyclopropyl]methoxy]pyrimidin-4-yl]spiro[5,6-dihydrocyclopenta[b]thiophene-4,3′-azetidine]-3-carbonitrile] |  | IC50 (listed as 74.1): < 10 nM
14 | CN(C)CC1(COc2nc(N3CC4CCC(C3)N4)c(C#N)c(N3CC4(CCc5sc(N)c(C#N)c54)C3)n2)CC1(F)F (stereo not shown) [Compound 74B, 2-amino-1′-[5-cyano-6-(3,8-diazabicyclo[3.2.1]octan-3-yl)-2-[[(1*)-1-[(dimethylamino)methyl]-2,2-difluoro-cyclopropyl]methoxy]pyrimidin-4-yl]spiro[5,6-dihydrocyclopenta[b]thiophene-4,3′-azetidine]-3-carbonitrile] |  | IC50 (listed as 74.2): 10 to 100 nM
15 | N#Cc1c(N2CCCn3nc(-c4ccccn4)c(Cl)c3C2)nc(OCC2(CN3CCOCC3)CC2)nc1N1CC2(CCc3sc(N)c(C#N)c32)C1 [Compound 75, 2-amino-1′-[6-[3-chloro-2-(2-pyridyl)-4,6,7,8-tetrahydropyrazolo[1,5-a][1,4]diazepin-5-yl]-5-cyano-2-[[1-(morpholinomethyl)cyclopropyl]methoxy]pyrimidin-4-yl]spiro[5,6-dihydrocyclopenta[b]thiophene-4,3′-azetidine]-3-carbonitrile] | < 10 nM | 
16 | N#Cc1c(N2C[C@H]3CC[C@@H](C2)N3)nc(OCc2ccccc2)nc1N1CC2(CCc3sc(N)c(C#N)c32)C1 [Compound 76, 2-amino-1′-[2-benzyloxy-5-cyano-6-[(1R,5S)-3,8-diazabicyclo[3.2.1]octan-3-yl]pyrimidin-4-yl]spiro[5,6-dihydrocyclopenta[b]thiophene-4,3′-azetidine]-3-carbonitrile] | < 10 nM | 
17 | N#Cc1c(N2C[C@H]3CC[C@@H](C2)N3)nc(OCc2ccn[nH]2)nc1N1CC2(CCc3sc(N)c(C#N)c32)C1 [Compound 79, 2-amino-1′-[5-cyano-6-[(1R,5S)-3,8-diazabicyclo[3.2.1]octan-3-yl]-2-(1H-pyrazol-5-ylmethoxy)pyrimidin-4-yl]spiro[5,6-dihydrocyclopenta[b]thiophene-4,3′-azetidine]-3-carbonitrile] | < 10 nM | 
18 | CN1CCN(CC2(COc3nc(N4C[C@H]5CC[C@@H](C4)N5)c(C#N)c(N4CC5(CCc6sc(N)c(C#N)c65)C4)n3)CC2)CC1=O [Compound 80, 2-amino-1′-[5-cyano-2-[[1-[(4-methyl-3-oxo-piperazin-1-yl)methyl]cyclopropyl]methoxy]-6-[(1R,5S)-3,8-diazabicyclo[3.2.1]octan-3-yl]pyrimidin-4-yl]spiro[5,6-dihydrocyclopenta[b]thiophene-4,3′-azetidine]-3-carbonitrile] | < 10 nM | 
19 | CO[C@H]1CN(CC2(COc3nc(N4C[C@H]5CC[C@@H](C4)N5)c(C#N)c(N4CC5(CCc6sc(N)c(C#N)c65)C4)n3)CC2)C[C@@H]1F [Compound 81, 2-amino-1′-[5-cyano-6-[(1R,5S)-3,8-diazabicyclo[3.2.1]octan-3-yl]-2-[[1-[[(3S,4S)-3-fluoro-4-methoxy-pyrrolidin-1-yl]methyl]cyclopropyl]methoxy]pyrimidin-4-yl]spiro[5,6-dihydrocyclopenta[b]thiophene-4,3′-azetidine]-3-carbonitrile] | < 10 nM | 
